Experimental data published in patent US11466273B2, “Monocarboxylate transporter 4 (MCT4) antisense oligonucleotide (ASO) inhibitors for use as therapeutics in the treatment of cancer” (THE UNIVERSITY OF BRITISH COLUMBIA, priority 2015, dated 2022).
Strand notation (5' to 3'): a small letter for the sugar, then the base; units joined by * are phosphorothioate-linked, units joined directly phosphodiester-linked; [ ] holds rarer units or linkages, { } end groups; capitals alone tell only the bases. d = 2'-deoxy (DNA)

Tests used:
MCT4 = experiment: Percent inhibition of MCT4 by MCT4 ASOs (knock-down after transfection, qPCR/Western blot); assay type: cell-based, human
Description: First-generation phosphorothioate-modified ASOs against human MCT4 were rationally designed by selecting sequences containing favourable motifs while excluding unfavourable ones (Matveeva et al., 2000). Specificity of MCT4-targeting sequences, compared to human and mouse genes (at least 3 of 20 bases mismatched), was evaluated using BLAST. Ten sequences SEQ ID No: 1, 4, 5, 9, 11, 30, 36, 37, 40 and 41 (see TABLE A) distributed throughout the length of the transcript with perfect complementarity to all human MCT4 transcript variants (NM_001042422.2, NM_001042423.2, NM_001206950.1, NM_001206951.1, NM_001206952.1, and NM_004207.3) were selected and synthesized by Eurofins MWG Operon. The knock-down efficiencies of these ten ASOs were tested by determining target mRNA and protein expression 48 hours after transfection of cells using qPCR and Western blotting. Two candidate ASOs (#1 and #14—SEQ ID NOs: 1 and 5, respectively) were selected for further studies. Sequences: ASO #1 (SEQ ID NO: 1), 5′-[…]-3′; ASO #14 (SEQ ID NO: 5), 5′-[…]-3′; a published non-targeting control ASO, 5′-[…]-3′ (Mullick et al., 2011; Samuel et al., 2006).
Cells were transfected in 6-well plates with ASOs at 100 nM for 48 hours (unless otherwise indicated) using Oligofectamine™ (Invitrogen™, Carlsbad, Calif.) or with MCT4-targeting siRNAs and controls (Dharmacon™, Chicago, Ill.) at 50 nM for 48 hours using Lipofectamine™ 2000 (Invitrogen™), following the manufacturer's instructions.
Total RNA was isolated using the RNeasy Mini Kit™ (Qiagen Inc.™, Hilden, Germany) and cDNA synthesized using the QuantiTect Reverse Transcription Kit™ (Qiagen™). Primers were designed using Primer-BLAST™. qRT-PCR reactions using KAPA SYBR Fast Universal™ (Kapa Biosystems™, Woburn, Mass.) were performed in triplicate in a ViiA 7 Real-Time PCR™ system (Applied Biosystems™, Foster City, Calif.). Target genes were normalized to a geometric average of 3 internal reference genes (Vandesompele et al., 2002).
Cells were harvested and lysed in RIPA buffer (50 mM Tris-Cl pH 7.4, 150 mM NaCl, 1% Igepal, 0.5% Na-deoxycholate, 0.1% SDS) supplemented with a complete protease inhibitor cocktail (Roche, Nutley, N.J.). The protein concentration of the lysate was determined by Pierce BCA Protein Assay™ (Thermo Scientific™, Waltham, Mass.). The lysate was run on 8% SDS polyacrylamide gel (20 ug of protein per lane) and proteins were transferred onto PVDF membrane (Millipore™, Billerica, Mass.). The blot was blocked with the Odyssey™ blocking buffer (Li-cor Biosciences™) and probed with anti-MCT4 antibody. Vinculin was used as a loading control. Following overnight incubation at 4° C., the primary antibody was probed with the corresponding secondary antibody and detected using the Odyssey Infrared Imaging System™ (Li-cor Biosciences™) and Image Studio Version 3.1™ (Li-cor Biosciences™). Densitometry analysis was done using ImageJ (U.S. National Institutes of Health, Bethesda, Md.).

PC3 cells = experiment: Combination screening, total live PC3 cell numbers; assay type: cell-based, human; conditions: Homo sapiens, PC-3; approximate IC50 used for combination screening, 48 hours; read-out: IC50 Concentration
Text: Human PC-3 and DU145 CRPC cells, human LNCaP prostate cancer cells, and mouse TRAMPC2 prostate cancer cells were purchased from the American Type Culture Collection (ATCC); C4-2 CRPC cells were from the Vancouver Prostate Centre, Vancouver, BC, Canada. Human monolayer cultures were maintained in RPMI-1640 (GE Healthcare Hyclone™, Logan, Utah) supplemented with 10% fetal bovine serum (FBS) (GE Healthcare Hyclone™, Logan, Utah) while TRAMPC2 cells were maintained in DMEM (GE Healthcare Hyclone™, Logan, Utah) supplemented with 5% FBS. For cell counting, cells were trypsinized to form a single cell suspension and counted using a TC20 Automated Cell Counter (Bio-Rad, Hercules, Calif.). Cell viability was assessed by trypan blue exclusion.
Various combination strategies were screened at the approximate IC50 concentrations to determine whether synergistic effects may be found by combining current cancer therapeutics (see TABLE D) with MCT4 ASO SEQ ID NO:5. In FIGS. 10 A-C, the total live PC3 cell numbers were assessed 48 hours after treatment with Metformin, Doxycycline and docetaxel both alone and in combination with MCT4 ASO SEQ ID NO:5.

[1] = Table A, ASOs transfected at 100 nM for 48 hours unless otherwise indicated
[2] = Table B, SEQ ID NO 1 and 16 mer truncations

Row | Compound | % MCT4 Inhibition (MCT4; [1]) [%] | % MCT4 Inhibition (MCT4; [2]) [%] | IC50 (PC3 cells) [µM]
1 | 35 (dC*dT*dT*dC*dA*dC*dC*dG*dC*dA*dG*dA*dT*dC*dC*dA*dC*dT*dC*dT; antisense; listed as Homo sapiens) [compound 35] | -10.07 |  | 
2 | 36 (dA*dA*dC*dA*dC*dT*dC*dC*dA*dC*dC*dC*dA*dC*dA*dC*dG*dC*dA*dG; antisense; listed as Homo sapiens) [compound 36] | 9.33 |  | 
3 | 37 (dC*dC*dA*dG*dC*dC*dA*dC*dT*dC*dA*dG*dA*dC*dA*dC*dT*dT*dG*dT; antisense; listed as Homo sapiens) [compound 37] | 33.14 |  | 
4 | 38 (dG*dG*dC*dC*dA*dC*dC*dG*dC*dC*dT*dC*dC*dA*dT*dC*dA*dG*dC*dA; antisense; listed as Homo sapiens) [compound 38] | 45.92 |  | 
5 | 39 (dC*dC*dT*dG*dA*dG*dC*dC*dA*dG*dT*dC*dC*dA*dG*dT*dT*dT*dG*dT; antisense; listed as Homo sapiens) [compound 39] | 39.46 |  | 
6 | 40 (dC*dC*dC*dA*dC*dC*dC*dA*dC*dC*dC*dT*dC*dC*dC*dA*dT*dT*dA*dA; antisense; listed as Homo sapiens) [compound 40] | -42.05 |  | 
7 | 41 (dG*dC*dT*dT*dC*dT*dG*dT*dA*dC*dC*dT*dC*dC*dT*dC*dC*dC*dT*dG; antisense; listed as Homo sapiens) [compound 41] | 17.02 |  | 
8 | 42 (dT*dG*dT*dC*dG*dC*dT*dG*dT*dA*dG*dC*dC*dG*dA*dT*dC*dC*dC; antisense; listed as Homo sapiens) [compound 42] | 21.20 |  | 
9 | 43 (TTAAAGTCACGTTGTCTCG; listed as DNA, chemistry not fully specified; listed as Homo sapiens) [compound 43] | 0.27 |  | 
10 | 44 (TTGCGGCTTGGCTTCACCG; listed as DNA, chemistry not fully specified; listed as Homo sapiens) [compound 44] | 31.16 |  | 
11 | 45 (dC*dA*dC*dA*dG*dC*dT*dC*dC*dT*dC*dC*dC*dA*dT*dG*dG*dC*dC*dA*dG*dG; listed as Rattus norvegicus) [compound 45] | 22.4 |  | 
12 | 46 (dA*dT*dG*dG*dC*dC*dA*dG*dG*dA*dG*dG*dG*dT*dT*dG; antisense; listed as Homo sapiens) [compound 46] | 76.03 | 76.03 | 
13 | 47 (dC*dA*dT*dG*dG*dC*dC*dA*dG*dG*dA*dG*dG*dG*dT*dT; antisense; listed as Homo sapiens) [compound 47] | 81.21 | 81.21 | 
14 | 48 (dC*dC*dA*dT*dG*dG*dC*dC*dA*dG*dG*dA*dG*dG*dG*dT; antisense; listed as Homo sapiens) [compound 48] | 77.65 | 77.65 | 
15 | 49 (dC*dC*dC*dA*dT*dG*dG*dC*dC*dA*dG*dG*dA*dG*dG*dG; antisense; listed as Homo sapiens) [compound 49] | 65.76 | 65.76 | 
16 | 50 (dT*dC*dC*dC*dA*dT*dG*dG*dC*dC*dA*dG*dG*dA*dG*dG; antisense; listed as Homo sapiens) [compound 50] | 30.52 | 30.52 | 
17 | 51 (dC*dC*dT*dT*dC*dC*dC*dT*dG*dA*dA*dG*dG*dT*dT*dC*dC*dT*dC*dC; antisense) [compound 51] | 0.00 |  | 
18 | CC(=O)O[C@@]12CO[C@@H]1C[C@H](O)[C@@]1(C)C(=O)[C@H](O)C3=C(C)[C@@H](OC(=O)[C@H](O)[C@@H](NC(=O)OC(C)(C)C)c4ccccc4)C[C@@](O)([C@@H](OC(=O)c4ccccc4)[C@H]21)C3(C)C [Docetaxel] |  |  | 0.0025
19 | C[C@H]1c2cccc(O)c2C(=O)C2=C(O)[C@]3(O)C(=O)C(C(N)=O)=C(O)[C@@H](N(C)C)[C@@H]3[C@@H](O)[C@@H]21 [Doxycycline] |  |  | 15
20 | CN(C)C(=N)N=C(N)N [Metformin] |  |  | 4000
